Among the data in ChEMBL document CHEMBL4334521, “Neuroprotective Dihydro-β-agarofuran-Type Sesquiterpenes from the Seeds of Euonymus maackii” (2019) are Activity values, retold here.

Activity calls are given as the source filed them. The rule behind the calls is not given here.

One experiment relates to SH-SY5Y. Briefly: Neuroprotective activity against amyloid beta (25 to 35)-induced cytotoxicity in human SH-SY5Y cells at 10 uM preincubated for 2 hrs followed by amyloid beta (25 to 35)-stimulation and measured after 24 hrs by MTT assay (reference value: 71.18 +/- 1.34). The format is functional.
Regarding `CC(=O)OC[C@]12[C@H](OC(=O)c3ccoc3)C[C@@H]3[C@@H](OC(C)=O)[C@]1(OC3(C)C)[C@@](C)(O)C[C@H](OC(=O)c1ccccc1)[C@@H]2OC(=O)c1ccoc1`, the Activity is 80.8%.
Still for that read-out and setting: with `CCC(C)C(=O)O[C@H]1[C@@H](OC(=O)c2ccoc2)C[C@](C)(O)[C@]23OC(C)(C)[C@H](C[C@H](OC(=O)c4ccoc4)[C@]12COC(C)=O)[C@H]3OC(C)=O` (some centres not stated) the figure was 82.96%; with `O=C(O[C@@H]1Cc2c(O)cc(O)cc2O[C@@H]1c1cc(O)c(O)c(O)c1)c1cc(O)c(O)c(O)c1` [EPIGALOCATECHIN GALLATE], 87.2%; with `CC(=O)OC[C@]12C(=O)[C@@H](OC(=O)c3ccccc3)[C@@H]3[C@@H](OC(C)=O)[C@]1(OC3(C)C)[C@H](C)C[C@H](OC(=O)c1cccnc1)[C@@H]2O`, 74.16%.
`CC(=O)OC[C@]12[C@H](OC(C)=O)[C@H](OC(=O)c3ccccc3)[C@@H]3[C@@H](OC(C)=O)[C@]1(OC3(C)C)[C@H](C)C[C@H](OC(C)=O)[C@@H]2OC(=O)c1ccccc1` showed an Activity of 80.75%.
The same measure, in the same setting: as for `CCC(C)C(=O)O[C@H]1C[C@](C)(O)[C@]23OC(C)(C)[C@H](C[C@@H](OC(=O)c4ccoc4)[C@]2(COC(C)=O)[C@H]1OC(=O)c1ccoc1)[C@H]3OC(C)=O` (some centres not stated), the figure is 71%.
On the same count and under the same terms, with `CC(=O)OC[C@]12[C@H](OC(C)=O)[C@H](OC(=O)c3ccccc3)[C@@H]3[C@@H](OC(C)=O)[C@]1(OC3(C)C)[C@H](C)C[C@H](OC(=O)c1ccccc1)[C@@H]2OC(=O)c1ccccc1` the figure was 80.92%; with `CC(=O)OC[C@]12[C@H](OC(=O)c3ccoc3)C[C@@H]3[C@@H](OC(C)=O)[C@]1(OC3(C)C)[C@@](C)(O)C[C@H](OC(=O)c1ccoc1)[C@@H]2OC(=O)c1ccoc1`, 70.11%.
The compound `CC[C@H](C)C(=O)O[C@@H]1[C@H]2[C@@H](OC(C)=O)[C@]3(OC2(C)C)[C@H](C)C[C@H](OC(=O)c2ccccc2)[C@H](OC(=O)c2ccccc2)[C@@]3(COC(C)=O)[C@@H]1OC(C)=O` showed an Activity of 80.11%.
For the compound `CCCCCC(=O)O[C@H]1C[C@@H](C)[C@]23OC(C)(C)[C@H]([C@@H](OC(=O)c4ccccc4)[C@@H](OC(C)=O)[C@]2(COC(C)=O)[C@H]1OC(=O)c1ccccc1)[C@H]3OC(C)=O`, the Activity came to 86.65%.
Same read-out and setting: with `CC(=O)OC[C@]12[C@@H](OC(=O)c3ccccc3)C[C@@H]3[C@@H](OC(C)=O)[C@]1(OC3(C)C)[C@H](C)C[C@H](OC(=O)c1ccccc1)[C@@H]2OC(C)=O` the figure was 83.04%.
Same read-out and setting: with `CCC(C)C(=O)O[C@H]1C[C@](C)(O)[C@]23OC(C)(C)[C@H](C[C@H](OC(=O)c4ccccc4)[C@]2(COC(C)=O)[C@H]1OC(=O)C(C)CC)[C@H]3OC(C)=O` (some centres not stated) the figure was 92.86%.
On the same count and under the same terms, as for `CC(=O)OC[C@]12[C@H](OC(=O)c3ccccc3)C[C@@H]3[C@@H](OC(C)=O)[C@]1(OC3(C)C)[C@H](C)C[C@H](OC(C)=O)[C@@H]2OC(C)=O`, the figure is 79.62%; as for `CC(=O)OC[C@]12[C@H](OC(C)=O)[C@H](OC(=O)c3ccccc3)[C@@H]3[C@@H](OC(C)=O)[C@]1(OC3(C)C)[C@H](C)C[C@H](O)[C@@H]2OC(=O)c1ccccc1`, 85.91%; as for `CCC(C)C(=O)O[C@H]1[C@@H](OC(C)=O)C[C@@H](C)[C@]23OC(C)(C)[C@H](C[C@@H](OC(=O)c4ccccc4)[C@]12COC(C)=O)[C@H]3OC(C)=O` (some centres not stated), 88.34%.

For the next experiment, the species on record is Danio rerio. Briefly: Neuroprotective activity against PTZ-induced seizure in zebra fish AB at 10 uM pretreated for 24 hrs followed by PTZ-stimulation and measured after 15 mins. The format is functional, organism-based.
For the compound `CC(=O)OC[C@]12[C@H](OC(C)=O)[C@H](OC(=O)c3ccccc3)[C@@H]3[C@@H](OC(C)=O)[C@]1(OC3(C)C)[C@H](C)C[C@H](OC(C)=O)[C@@H]2OC(=O)c1ccccc1`, the result was Active.
Turning to `CC(=O)OC[C@]12[C@@H](OC(=O)c3ccccc3)C[C@@H]3[C@@H](OC(C)=O)[C@]1(OC3(C)C)[C@H](C)C[C@H](OC(=O)c1ccccc1)[C@@H]2OC(C)=O`, the outcome was inactive.
